Laboratory results published in ChEMBL document CHEMBL4400538, “Discovery of Carboline Derivatives as Potent Antifungal Agents for the Treatment of Cryptococcal Meningitis” (J Med Chem, 2019).
In brackets after ≈: the same amount, converted by molar mass. Activity calls are given as the source filed them. The calls are words filed in the database; no cut-off is given here.

Tests used:
[1] = tested on: Cryptococcus neoformans; assay: Antifungal activity against Cryptococcus neoformans H99 after 48 hrs by growth curve assay; assay type: functional; details: for MIC80: var grubii H99 
[2] = tested on: Candida albicans; assay: Antifungal activity against Candida albicans 0304103 after 48 hrs by spectrophotometery; assay type: functional; details: Candida albicans, 0304103, 48 h
[3] = tested on: Cryptococcus neoformans; assay: Inhibition of melanin production in Cryptococcus neoformans H99 at 2.5 ug/ml; assay type: functional, organism-based; details: var grubii H99
[4] = tested on: Trichophyton rubrum; assay: Antifungal activity against Trichophyton rubrum TIA after 48 hrs by spectrophotometery; assay type: functional
[5] = tested on: Aspergillus fumigatus; assay: Antifungal activity against Aspergillus fumigatus 7544 after 48 hrs by spectrophotometery; assay type: functional; details: Aspergillus fumigatus, 7544, 48 h
[6] = Protein binding in mouse plasma; assay type: ADME, cell-free
[7] = tested on: Cryptococcus neoformans; assay: Inhibition of urease production in Cryptococcus neoformans H99 at 10 ug/ml; assay type: functional, organism-based; details: var grubii H99
[8] = tested on: Nannizzia gypsea; assay: Antifungal activity against Microsporum gypseum MZC after 48 hrs by spectrophotometery; assay type: functional
[9] = tested on: Cryptococcus gattii; assay: Antifungal activity against Cryptococcus gattii ATCC 14116 after 72 hrs by spectrophotometery; details: ATCC 14116, 72 h
[10] = tested on: HUVEC; assay: Cytotoxicity against human HUVEC; assay type: cell-based
[11] = Solubility of the compound; assay type: physicochemical
[12] = tested on: Candida parapsilosis; assay: Antifungal activity against Candida parapsilosis 5008 after 48 hrs by spectrophotometery; assay type: functional; details: Lodderomyces parapsilosis, 5008, 48 h
[13] = tested on: Cryptococcus neoformans; assay: Antifungal activity against Cryptococcus neoformans H99 after 72 hrs by growth curve assay; assay type: functional; details: var grubii H99 
[14] = tested on: Nakaseomyces glabratus; assay: Antifungal activity against Candida glabrata 8535 after 48 hrs by spectrophotometery; assay type: functional; details: Nakaseomyces glabratus, 8535, 48 h
[15] = Half life in ICR mouse liver microsomes at 1 uM measured up to 45 mins in presence of NADPH by LC-MS/MS analysis; assay type: ADME, Microsome
[16] = tested on: Cryptococcus neoformans; assay: Antibiofilm activity against Cryptococcus neoformans H99 at 16 ug/ml after 90 mins by XTT assay; assay type: functional, organism-based; details: var grubii H99
[17] = Clearance in ICR mouse liver microsomes at 1 uM measured up to 45 mins in presence of NADPH by LC-MS/MS analysis; assay type: ADME, Microsome; details: 0.75 h
[18] = tested on: Candida albicans; assay: Antifungal activity against Candida albicans 7781 after 48 hrs by spectrophotometery; assay type: functional; details: Candida albicans, 7781, 48 h
[19] = tested on: Cryptococcus neoformans; assay: Antifungal activity against Cryptococcus neoformans H99 assessed as inhibition of microbial growth at 8 ug/ml after 12 to 48 hrs by growth curve assay; assay type: functional; details: var grubii H99, read-out: GI
[20] = tested on: Cryptococcus neoformans; assay: Antifungal activity against Cryptococcus neoformans ATCC 34877 after 72 hrs by spectrophotometery; assay type: functional; details: ATCC 34877, 72 h
[21] = tested on: Cryptococcus neoformans; assay: Antifungal activity against Cryptococcus neoformans H99 infected in ICR mouse assessed as reduction in brain fungal load at 20 mg/kg, po administered daily for 5 days; assay type: functional, organism-based; details: var grubii H99
[22] = tested on: Cryptococcus neoformans; assay: Antifungal activity against Cryptococcus neoformans H99 assessed as up-regulation of cyclin B1 expression at 2 to 4 ug/ml after 24 hrs by Western blot analysis; assay type: functional, organism-based; details: var grubii H99
[23] = tested on: Cryptococcus neoformans; assay: Induction of cell cycle arrest in Cryptococcus neoformans H99 assessed as accumulation at G2 phase at 4 ug/ml after 24 hrs by propidium iodide-staining based FACS analysis (reference value: 3.86%); assay type: functional, var grubii H99
[24] = tested on: Cryptococcus neoformans; assay: Antifungal activity against Cryptococcus neoformans H99 assessed as up-regulation of Cdc25C expression at 2 to 4 ug/ml after 24 hrs by Western blot analysis; assay type: functional, organism-based; details: var grubii H99
[25] = tested on: Cryptococcus neoformans; assay: Antifungal activity against Cryptococcus neoformans H99 assessed as fragmented nuclei at 4 ug/ml after 24 hrs by TEM analysis; assay type: functional, organism-based; details: var grubii H99
[26] = tested on: Cryptococcus neoformans; assay: Antibiofilm activity against Cryptococcus neoformans H99 assessed as inhibition of cellular surface hydrophobicity at 10 ug/ml incubated for 24 hrs by water-hydrocarbon two-phase assay; assay type: functional, organism-based; details: var grubii H99
[27] = tested on: Cryptococcus neoformans; assay: Antifungal activity against Cryptococcus neoformans H99 assessed as cell wall collapse at 4 ug/ml after 24 hrs by TEM analysis; assay type: functional, organism-based; details: var grubii H99
[28] = tested on: Cryptococcus neoformans; assay: Induction of cell cycle arrest in Cryptococcus neoformans H99 assessed as accumulation at G1 phase at 4 ug/ml after 24 hrs by propidium iodide-staining based FACS analysis (reference value: 44.50%); assay type: functional, var grubii H99
[29] = tested on: Cryptococcus neoformans; assay: Induction of cell cycle arrest in Cryptococcus neoformans H99 assessed as accumulation at S phase at 4 ug/ml after 24 hrs by propidium iodide-staining based FACS analysis (reference value: 51.64%); assay type: functional, var grubii H99
[30] = tested on: Cryptococcus neoformans; assay: Antifungal activity against Cryptococcus neoformans H99 assessed as up-regulation of CDK1 expression at 2 to 4 ug/ml after 24 hrs by Western blot analysis; assay type: functional, organism-based; details: var grubii H99
[31] = tested on: Cryptococcus neoformans; assay: Antifungal activity against Cryptococcus neoformans H99 assessed as damaged cell membranes at 4 ug/ml after 24 hrs by TEM analysis; assay type: functional, organism-based; details: var grubii H99

Molecule `Cc1ccc(NCCCn2c3c(c4ccccc42)CCNC3)cc1.O=C(O)C(F)(F)F` has an MIC80 [1] of 16 µg/mL.

Molecule `c1ccc(CN2CCN(CCCn3c4c(c5ccccc53)CCNC4)CC2)cc1` has an MIC80 [1] of 32 µg/mL (≈ 82.4 µM).

For `Cc1ccc2c(c1)c1c(n2CCCOc2ccc(Cl)cc2)CNCC1.O=C(O)C(F)(F)F`, the MIC80 [2] was 4 µg/mL, the inhibition [3] was “Active” and the MIC80 [4] was 4 µg/mL. For the same molecule, the MIC80 [5] was 8 µg/mL, the PPB [6] was “Active” and the inhibition [7] was “inactive”. The MIC80 [8] was 8 µg/mL, the MIC80 [9] was 2 µg/mL and the Activity [10] was “Non-Toxic”. The solubility [11] was 57.5 µg/mL, the MIC80 [12] was 8 µg/mL and the MIC80 [13] was 2 µg/mL. For the same molecule, the Activity ([1]; var grubii H99) was “Dose-dependent effect”, the MIC80 [1] was 1 µg/mL and the MIC80 [14] was 2 µg/mL. The half-life at 1 µM [15] was 11 min, the Activity [16] was “Active” and the scaled CLint [17] was 477 mL/min/kg. For the same molecule, the MIC80 [18] was 4 µg/mL, the inhibition of growth at 8 µg/mL [19] was 100% and the MIC80 [20] was 2 µg/mL.

Work on `Clc1ccc(OCCCn2c3c(c4ccc(Br)cc42)CCNC3)cc1.O=C(O)C(F)(F)F` yielded an MIC80 [1] of 2 µg/mL.

Molecule `c1ccc2c(c1)c1c(n2CCCNC2CCCC2)CNCC1` has an MIC80 [1] of 64 µg/mL (≈ 215 µM).

`CCOc1cccc(NCCCn2c3c(c4ccccc42)CCNC3)c1.O=C(O)C(F)(F)F` showed an MIC80 [1] of 64 µg/mL.

With `Fc1ccc(OCCCn2c3c(c4ccccc42)CCNC3)cc1.O=C(O)C(F)(F)F` the MIC80 [1] was 8 µg/mL.

`Fc1ccc(NCCCn2c3c(c4ccccc42)CCNC3)cc1.O=C(O)C(F)(F)F` showed an MIC80 [1] of 16 µg/mL.

Work on `CN(C)CCn1c2c(c3ccccc31)CCNC2` yielded an MIC80 [1] of 64 µg/mL (≈ 263 µM).

In the case of `Clc1ccc(OCCCn2c3c(c4cc(Br)ccc42)CCNC3)cc1.O=C(O)C(F)(F)F`, the solubility [11] is reported as 19.3 µg/mL and the MIC80 [1] is reported as 0.5 µg/mL.

`COc1ccccc1NCCCn1c2c(c3ccccc31)CCNC2.O=C(O)C(F)(F)F` showed an MIC80 [1] of 32 µg/mL.

In the case of `OC(Cn1cncn1)(Cn1cncn1)c1ccc(F)cc1F` [FLUCONAZOLE], the MIC80 [2] is reported as greater than 64 µg/mL, the inhibition [3] is reported as “inactive” and the MIC80 [4] is reported as 2 µg/mL (≈ 6.53 µM). For the same molecule, the MIC80 [5] was greater than 64 µg/mL, the MIC80 [8] was 16 µg/mL (≈ 52.2 µM) and the Activity [21] was “Active”. For the same molecule, the MIC80 [9] was 4 µg/mL (≈ 13.1 µM), the Activity [22] was “inactive” and the Activity [23] was 0.96%. The Activity [24] was “inactive”, the Activity [25] was “Active” and the MIC80 [12] was 32 µg/mL (≈ 104 µM). It also gave an MIC80 [13] of 2 µg/mL (≈ 6.53 µM), an MIC80 [1] of 4 µg/mL (≈ 13.1 µM) and an MIC80 [14] of 4 µg/mL (≈ 13.1 µM). For the same molecule, the Activity [26] was “inactive”, the Activity [27] was “inactive” and the Activity [28] was 50.86%. For the same molecule, the Activity [29] was 48.17%, the Activity [30] was “inactive” and the MIC80 [18] was 32 µg/mL (≈ 104 µM). The Activity [31] was “Active” and the MIC80 [20] was 4 µg/mL (≈ 13.1 µM).

`COc1ccc2c(c1)c1c(n2CCCOc2ccc(Cl)cc2)CNCC1.O=C(O)C(F)(F)F` showed an MIC80 [1] of 4 µg/mL.

Molecule `Clc1ccc(OCCCn2c3c(c4cccc(Br)c42)CCNC3)cc1.O=C(O)C(F)(F)F` has an MIC80 [1] of 4 µg/mL.

`Clc1ccccc1OCCCn1c2c(c3ccccc31)CCNC2.O=C(O)C(F)(F)F` gave an MIC80 [1] of 4 µg/mL.

For `CC1CCCN(CCCn2c3c(c4ccccc42)CCNC3)C1` (centres undefined), the MIC80 [1] was 32 µg/mL (≈ 103 µM).

Work on `Cc1ccc2c3c(n(CCCOc4ccc(Cl)cc4)c2c1)CNCC3.O=C(O)C(F)(F)F` yielded an MIC80 [1] of 2 µg/mL.

In the case of `O=C1c2ccccc2C(=O)N1CCCn1c2c(c3ccccc31)CCNC2`, the MIC80 [1] is reported as 64 µg/mL (≈ 178 µM).

Molecule `Clc1ccc(OCCCn2c3c(c4c(Br)cccc42)CCNC3)cc1.O=C(O)C(F)(F)F` has an MIC80 [1] of 8 µg/mL.

In the case of `Fc1cccc(NCCCn2c3c(c4ccccc42)CCNC3)c1.O=C(O)C(F)(F)F`, the MIC80 [1] is reported as 16 µg/mL.

Work on `CCN(CC)CCCn1c2c(c3ccccc31)CCNC2` yielded an MIC80 [1] of 64 µg/mL (≈ 224 µM).

Molecule `COc1cccc(NCCCn2c3c(c4ccccc42)CCNC3)c1.O=C(O)C(F)(F)F` has an MIC80 [1] of 32 µg/mL.

For `Clc1ccc(NCCCn2c3c(c4ccccc42)CCNC3)cc1.O=C(O)C(F)(F)F`, the MIC80 [1] was 8 µg/mL.

Work on `Fc1cccc(OCCCn2c3c(c4ccccc42)CCNC3)c1.O=C(O)C(F)(F)F` yielded an MIC80 [1] of 8 µg/mL.

In the case of `c1ccc2c(c1)c1c(n2CCCN2CCCC2)CNCC1`, the MIC80 [1] is reported as 64 µg/mL (≈ 226 µM).

Work on `Cc1ccc(OCCCn2c3c(c4ccccc42)CCNC3)cc1.O=C(O)C(F)(F)F` yielded an MIC80 [1] of 8 µg/mL.

`Clc1ccc(OCCCn2c3c(c4ccc(Cl)cc42)CCNC3)cc1.O=C(O)C(F)(F)F` gave an MIC80 [1] of 2 µg/mL.

`c1ccc(N2CCN(CCCn3c4c(c5ccccc53)CCNC4)CC2)cc1` showed an MIC80 [1] of 32 µg/mL (≈ 85.4 µM).

Work on `Brc1cccc(OCCCn2c3c(c4ccccc42)CCNC3)c1.O=C(O)C(F)(F)F` yielded an MIC80 [1] of 4 µg/mL.

`Brc1ccccc1NCCCn1c2c(c3ccccc31)CCNC2.O=C(O)C(F)(F)F` gave an MIC80 [1] of 8 µg/mL.

Work on `Clc1cccc(NCCCn2c3c(c4ccccc42)CCNC3)c1.O=C(O)C(F)(F)F` yielded an MIC80 [1] of 8 µg/mL.
